{"source": "patent US10688093B2", "about": "“Methods, compositions, and uses of novel Fyn kinase inhibitors” (priority 2015, dated 2020)", "note": "pIC50: −log10 of the molar value.", "data": [{"biological_target": "full-length recombinant human FYN A (Homo sapiens (Human), UniProt P06241)", "sequence (P06241 whole entry)": "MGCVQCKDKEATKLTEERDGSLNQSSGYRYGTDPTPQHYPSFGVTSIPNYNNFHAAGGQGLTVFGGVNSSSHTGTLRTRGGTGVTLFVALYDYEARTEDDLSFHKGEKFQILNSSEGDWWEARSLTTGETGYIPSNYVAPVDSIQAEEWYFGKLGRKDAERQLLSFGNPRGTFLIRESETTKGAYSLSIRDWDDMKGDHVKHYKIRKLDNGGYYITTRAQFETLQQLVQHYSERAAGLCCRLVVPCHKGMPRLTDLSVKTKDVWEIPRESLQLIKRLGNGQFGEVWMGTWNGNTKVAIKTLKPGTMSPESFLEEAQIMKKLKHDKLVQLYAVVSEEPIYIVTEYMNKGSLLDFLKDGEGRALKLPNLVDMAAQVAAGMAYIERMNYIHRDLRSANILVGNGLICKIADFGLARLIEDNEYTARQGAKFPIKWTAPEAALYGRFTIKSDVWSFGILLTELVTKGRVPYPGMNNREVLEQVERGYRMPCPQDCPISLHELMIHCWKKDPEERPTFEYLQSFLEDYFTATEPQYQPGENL", "test": "ADP-Glo Kinase Assay of FYN kinase inhibition", "assay_type": "biochemical", "conditions": "primary screen, initial compounds", "text": "The chemical library was comprised of the SoftFocus ATP-competitive hinge binding compounds described by Harris, C. J., Hill, R. D., Sheppard, D. W., et al., The Design and Application of Target-Focused Compound Libraries. Combinatorial Chemistry and High Throughput Screening 14:521-31 (2011). The specific pharmacore chemistries included SFK52 comprising 6-[R2]-3-[R1]imidazo[1,2-b] pyridazine compounds, SFK33 comprising N-(3-[R2] imidazo [1,2-b] pyridazin-6-yl) [R1] amine compounds, SFK49 comprising N-(5-[R2] imidazo [2,1-b][1,3,4] thiadiazol-2-yl)[R1]-amine compounds, SFK 40 comprising 5-[R2]-3-[R1] pyridin-2-amine compounds, SFK43 comprising 6-[R2]-3-[R1]imidazo[1,2-a]pyrazine compounds, and SFK63. The chemical structures of the initial 600 potential kinase inhibitors are presented in Table 3, with those chosen for additional analysis presented in Table 4. Comparison of the compounds presented in Table 1 and those of Tables 2, 3 and 4, illustrate the novelty of the chemical structures claimed herein.\nFYN kinase (10 micrograms) was from the FYN A Kinase Enzyme System (V3571, Promega UK Ltd.), a full-length recombinant human FYN A containing an N-terminal GST tag of about 85 kDa, expressed by bacullovirus in […] insect cells, supplied at a concentration of 0.1 microgram/microliter in 5×reaction buffer. The FYN substrate, a 12 amino acid peptide of the sequence […], containing a single tyrosine phosphorylation site, was custom synthesized (Peptide Synthetics, Peptide Protein Research, Fareham, UK) and supplied as a 4 mg/ml aqueous solution. All other reagents were obtained from Sigma (Sigma-Aldrich, Gillingham, Dorset, UK), with the exception of UltraPure ATP (V9102, Promega UK Ltd.) and the ATP-competitive broad spectrum protein kinase inhibitor staurosporine (569397, Merck Millipore, Watford, Hertfordshire, UK), or as otherwise indicated.\nThe assay procedure determines the IC50 of each potential FYN kinase inhibitor by measuring the enzyme catalyzed ATP-dependent phosphorylation of the FYN substrate peptide. The ADP-Glo™ Kinase Assay is specifically designed to quantify kinase activity by measuring the ADP produced in the reaction The reaction buffer comprises 40 mM Tris.HCl (pH 7.5), 20 mM MgCl2, 0.1 mg/ml BSA and 5 microM DTT. Individual compounds within the chemical library were dissolved in DMSO at known concentrations. Briefly, 2.5 microliters of reaction buffer containing 3 picograms of FYN kinase and serial dilutions of each potential FYN kinase inhibitor (9 3-fold dilutions of a 10 micromolar top sample) are placed into each well of a 384 well microtiter plate and incubated at room temperature for 30 minutes. An additional 2.5 microliters of reaction buffer containing 100 picograms of the FYN substrate and 12.5 picomoles of ATP are then added to each well and the reaction carried out for 90 minutes at room temperature. The reactions are terminated by addition of 5 microliters of the ADP-Glo™ Reagent component of the ADP-Glo™ Kinase Assay kit to each well. The ADP-Glo™ Reagent comprises an ATP-dependent adenylate cyclase, an inorganic pyrophosphatase and an excess of staurosporine. The adenylate cyclase converts the remaining ATP to cAMP and pyrophospahte, the pyrophosphatase converts the pyrophosphate to phosphate and the staurosporine inhibits the activity of the FYN kinase, the net effect is to remove all residual ATP while preserving the ADP produced by FYN kinase. The terminated reactions are incubated for 40 minutes at room temperature, prior to addition of the Kinase Detection Reagent component of the ADP-Glo™ Kinase Assay kit to each well. The Kinase Detection Reagent comprises pyruvate kinase, phosphoenol pyruvate (PEP), luciferin and luciferase. The pyruvate kinase converts PEP to pyruvate and in the process generates ATP from the residual ADP present in the terminated reaction. […]", "values": [{"smiles": "COc1ccc(-c2cnc3ccc(N[C@H](CO)C(C)C)nn23)cc1OC", "note": "[229_0254_0079, (2S)-2-[[3-(3,4-dimethoxyphenyl)imidazo[1,2-b]pyridazin-6-yl]amino]-3-methyl-butan-1-ol]", "pIC50": 6.11}, {"smiles": "CC(=O)Nc1cccc(-c2cnc3ccc(N[C@H](CO)C(C)C)nn23)c1", "note": "[229_0254_0081, N-[3-[6-[[(1S)-1-(hydroxymethyl)-2-methyl-propyl]amino]imidazo[1,2-b]pyridazin-3-yl]phenyl] acetamide]", "pIC50": 6.10}, {"smiles": "CC(C)[C@@H](CO)Nc1ccc2ncc(-c3ccc(C#N)cc3)n2n1", "note": "[229_0254_0086, 4-[6-[[(1S)-1-(hydroxymethyl)-2-methyl-propyl]amino]imidazo[1,2-b]pyridazin-3-yl]benzonitrile]", "pIC50": 5.50}, {"smiles": "CC(C)[C@@H](CO)Nc1ccc2ncc(-c3ccc(N)cc3)n2n1", "note": "[229_0254_0333, (2S)-2-[[3-(4-aminophenyl)imidazo[1,2-b]pyridazin-6-yl]amino]-3-methyl-butan-1-ol]", "pIC50": 5.52}, {"smiles": "c1ccc(CNc2ccc3ncc(-c4ccc5c(c4)OCO5)n3n2)nc1", "note": "[229_4007_0068, 3-(1,3-benzodioxol-5-yl)-N-(2-pyridylmethyl) imidazo[1,2-b]pyridazin-6-amine]", "pIC50": 6.10}, {"smiles": "COc1cccc(-c2cnc3ccc(NCC4CC4)nn23)c1", "note": "[229_4051_4140, N-(cyclopropyl-methyl)-3-(3-methoxyphenyl) imidazo[1,2-b]pyridazin-6-amine]", "pIC50": 5.48}, {"smiles": "COc1cc(-c2cnc3ccc(NCc4ccc(C)cc4C)nn23)ccc1O", "note": "[229_4319_0314, 4-[6-[(2,4-dimethylphenyl)methylamino]imidazo[1,2-b]pyridazin-3-yl]-2-methoxy-phenol]", "pIC50": 5.28}, {"smiles": "COc1cccc(-c2ccc3c(-c4ccc(C(=O)NCCCN(C)C)cc4)n[nH]c3n2)c1F", "note": "[267_0180_7936, N-[3-(dimethylamino)propyl]-4-[6-(2-fluoro-3-methoxy-phenyl)-1H-pyrazolo[3,4-b]pyridin-3-yl]benzamide]", "pIC50": 5.13}, {"smiles": "COc1ccc(Nc2ccn3ncc(-c4cccc(O)c4)c3n2)cn1", "note": "[294_0042_0284, 3-[5-[(6-methoxy-3-pyridyl)amino]pyrazolo[1,5-a]pyrimidin-3-yl]phenol]", "pIC50": 5.47}, {"smiles": "COc1cccc(-c2cnn3ccc(Nc4ccc(OC)nc4)nc23)c1", "note": "[294_0042_4140, 3-(3-methoxyphenyl)-N-(6-methoxy-3-pyridyl)pyrazolo [1,5-a]pyrimidin-5-amine]", "pIC50": 5.27}, {"smiles": "COc1ccc(Nc2ccn3ncc(-c4cccc(C(C)=O)c4)c3n2)cn1", "note": "[294_0042_4145, 1-[3-[5-[(6-methoxy-3-pyridyl)amino]pyrazolo[1,5-a]pyrimidin-3-yl]phenyl] ethanone]", "pIC50": 5.79}, {"smiles": "COc1cncc(-c2cnn3ccc(Nc4ccc(N5CCOCC5)cc4)nc23)c1", "note": "[294_0088_0196, 3-(5-methoxy-3-pyridyl)-N-(4-morpholino-phenyl)pyrazolo [1,5-a]pyrimidin-5-amine]", "pIC50": 5.65}, {"smiles": "Cc1ccc(Nc2ccn3ncc(-c4cccc(O)c4)c3n2)cc1NS(C)(=O)=O", "note": "[294_0123_0284, N-[5-[[3-(3-hydroxyphenyl)pyrazolo[1,5-a]pyrimidin-5-yl]amino]-2-methyl-phenyl]methane-sulfonamide]", "pIC50": 5.50}, {"smiles": "Nc1cccc(-c2cnn3ccc(NCc4cccnc4)nc23)c1", "note": "[294_4003_0005, 3-(3-amino-phenyl)-N-(3-pyridylmethyl) pyrazolo[1,5-a]pyrimidin-5-amine]", "pIC50": 5.60}, {"smiles": "COc1ccc(-c2cnn3ccc(NCc4cccnc4)nc23)cc1OC", "note": "[294_4003_0079, 3-(3,4-dimethoxy-phenyl)-N-(3-pyridylmethyl) pyrazolo[1,5-a]pyrimidin-5-amine]", "pIC50": 5.79}, {"smiles": "COc1ccccc1-c1cnn2ccc(NCc3cccnc3)nc12", "note": "[294_4003_0083, 3-(2-methoxyphenyl)-N-(3-pyridylmethyl) pyrazolo[1,5-a]pyrimidin-5-amine]", "pIC50": 5.91}, {"smiles": "COc1cc(-c2cnn3ccc(NCc4cccnc4)nc23)cc(OC)c1OC", "note": "[294_4003_0087, N-(3-pyridylmethyl)-3-(3,4,5-trimethoxy-phenyl) pyrazolo[1,5-a]pyrimidin-5-amine]", "pIC50": 5.63}, {"smiles": "COc1ccc(-c2cnn3ccc(Nc4ccc(C(C)C)cc4)nc23)cc1", "note": "[294_6937_0280, N-(4-isopropylphenyl)-3-(4-methoxyphenyl) pyrazolo[1,5-a]pyrimidin-5-amine]", "pIC50": 5.38}, {"smiles": "COc1cc(-c2cnc(N)c(-c3cccc(N)c3)c2)cc(OC)c1OC", "note": "[382_0005_0087, 3-(3-aminophenyl)-5-(3,4,5-trimethoxy-phenyl)pyridin-2-amine]", "pIC50": 5.53}, {"smiles": "Cc1cc(-c2cnc(N)c(-c3ccncc3)c2)cc(C)c1O", "note": "[382_0069_0315, 4-[6-amino-5-(4-pyridyl)-3-pyridyl]-2,6-dimethyl-phenol]", "pIC50": 5.77}, {"smiles": "COc1cc(-c2cc(-c3ccc(OCCCN(C)C)nc3)cnc2N)cc(OC)c1OC", "note": "[382_0087_0002, 5-[6-[3-(dimethylamino)propoxy]-3-pyridyl]-3-(3,4,5-trimethoxy-phenyl)pyridin-2-amine]", "pIC50": 6.28}, {"smiles": "COc1cc(-c2cc(-c3ccccc3)cnc2N)cc(OC)c1OC", "note": "[382_0087_0061, 5-phenyl-3-(3,4,5-trimethoxy-phenyl)pyridin-2-amine]", "pIC50": 6.05}, {"smiles": "COc1cc(-c2cc(-c3ccccc3Oc3ccccc3)cnc2N)cc(OC)c1OC", "note": "[382_0087_0063, 5-(2-phenoxyphenyl)-3-(3,4,5-trimethoxy-phenyl)pyridin-2-amine]", "pIC50": 5.05}, {"smiles": "COc1cc(-c2cc(-c3cc4ccccc4s3)cnc2N)cc(OC)c1OC", "note": "[382_0087_0076, 5-(benzothiophen-2-yl)-3-(3,4,5-trimethoxyphenyl) pyridin-2-amine]", "pIC50": 5.57}, {"smiles": "COc1cc(-c2cc(-c3cccc(N(C)C)c3)cnc2N)cc(OC)c1OC", "note": "[382_0087_0135, 5-[3-(dimethyl-amino)phenyl]-3-(3,4,5-trimethoxyphenyl) pyridin-2-amine]", "pIC50": 6.23}, {"smiles": "COc1cc(-c2cc(-c3cccc(C(=O)NCCO)c3)cnc2N)cc(OC)c1OC", "note": "[382_0087_0192, 3-[6-amino-5-(3,4,5-trimethoxy-phenyl)-3-pyridyl]-N-(2-hydroxyethyl) benzamide]", "pIC50": 6.31}, {"smiles": "COc1cc(-c2cc(-c3ccc(N4CCN(C)CC4)cc3)cnc2N)cc(OC)c1OC", "note": "[382_0087_0218, 5-[4-(4-methylpiperazin-1-yl)phenyl]-3-(3,4,5-trimethoxyphenyl)pyridin-2-amine]", "pIC50": 6.49}, {"smiles": "COc1ccc(-c2cnc(N)c(-c3cc(OC)c(OC)c(OC)c3)c2)cc1", "note": "[382_0087_0280, 5-(4-methoxyphenyl)-3-(3,4,5-trimethoxy-phenyl)pyridin-2-amine]", "pIC50": 5.53}, {"smiles": "COc1cc(-c2cc(-c3cccc(O)c3)cnc2N)cc(OC)c1OC", "note": "[382_0087_0284, 3-[6-amino-5-(3,4,5-trimethoxy-phenyl)-3-pyridyl]phenol]", "pIC50": 6.14}, {"smiles": "COc1ccc(-c2cnc(N)c(-c3cc(OC)c(OC)c(OC)c3)c2)cn1", "note": "[382_0087_0311, 5-(6-methoxy-3-pyridyl)-3-(3,4,5-trimethoxyphenyl) pyridin-2-amine]", "pIC50": 5.97}, {"smiles": "COc1cc(-c2cc(-c3cccc(F)c3)cnc2N)cc(OC)c1OC", "note": "[382_0087_0313, 5-(3-fluorophenyl)-3-(3,4,5-trimethoxy-phenyl)pyridin-2-amine]", "pIC50": 5.82}, {"smiles": "COc1cc(-c2cc(-c3cc(C)c(O)c(C)c3)cnc2N)cc(OC)c1OC", "note": "[382_0087_0315, 4-[6-amino-5-(3,4,5-trimethoxyphenyl)-3-pyridyl]-2,6-dimethyl-phenol]", "pIC50": 6.15}, {"smiles": "COc1cc(-c2cc(-c3ccc(N)cc3)cnc2N)cc(OC)c1OC", "note": "[382_0087_0333, 5-(4-aminophenyl)-3-(3,4,5-trimethoxy-phenyl)pyridin-2-amine]", "pIC50": 6.01}]}]}
